Test results reported in the NIST ThermoML archive (doi:10.1021/je049657g).
Numbers after ± are expanded uncertainties.

Conditions: 298.15 K, Liquid; for viscosity: 101 kPa, Capillary tube (Ostwald / Ubbelohde) method; for mass density: 101.33 kPa

viscosity [mPa·s]	mass density [kg/m3]	SMILES
0.804 ± 0.007	943.65 ± 1.5	CN(C)C=O [dimethylformamide]
0.944 ± 0.008	936.54 ± 1.4	CC(=O)N(C)C [N,N-dimethylethanamide]
1.672 ± 0.014	1027.91 ± 1.6	CN1CCCC1=O [N-methylpyrrolidone]

SMILES	viscosity [mPa·s]	mass density [kg/m3]
O=C1CCCN1 [2-pyrrolidinone]	13.19 ± 0.17	1106.82 ± 2
